Assay results taken from patent publication US11930815B1, “3,3′-(piperazine-1,4-diyl)bis(1-(naphthalen-2-yloxy)propan-2-ol) as insecticidal agent” (priority 2023, dated 2024).
Converted amounts (≈) assume the structure as drawn. Where two headings read alike, the source gives them in different places.

Columns and labels:
[1] = system: 2nd instars of larvae of Spodoptera littoralis; assay: Insecticidal bioassay screening, castor leaf dip, 2nd instar larvae; format: in vivo; conditions: for Toxic ratio: 2nd larvae, fenoxycarb's LC50/the compound's LC50 × 100
Description: (§1) Five concentrations (200, 100, 50, 25, 12.5 ppm) were designed for this synthetic compound and the reference fenoxycarb compound as the dynamic ingredients based on ppm via diluting the commercial formulation.
(§2) In this experiment, castor leaves are immersed in each of the previously prepared concentrations of the components for 10 seconds and then left to dry for 60 minutes. Larvae of the second and fourth instars of each checked strain are prepared with treated leaves in gauze-covered glass containers for 72 hrs. An untreated control is made in which leaves are dipped in triton x-100 and distilled water only. Then the preserved leaves were removed & fresh, untreated leaves were provided for 72 hours. Three replicates (10 larvae each) were checked for each concentration. Daily inspection was carried out for all treatments and mortality percentages were recorded 3 days (72 hours) after treatment. The average mortality percentage was corrected employing Abbott's formula. The corrected mortality rate for each of the previously synthesized compounds is statistically calculated according to Finney (1970). Through this rate, the corresponding concentration test lines (LDP lines) are assessed. Fifty and ninety percent mortality are determined, and the regression values for the checked products were previously evaluated.

[2] = system: 4th instars of larvae of Spodoptera littoralis; assay: Insecticidal bioassay screening, castor leaf dip, 4th instar larvae; format: in vivo; conditions: for Toxic ratio: 4th larvae, fenoxycarb's LC50/the compound's LC50 × 100
Description: as §1, §2

[3] = Spodoptera littoralis, foliar, 72 h

Row | SMILES | LC50 ([1]; 2nd instars of larvae of Spodoptera littoralis, after 72 hours of treatment) | LC50 ([2]; in vivo) | Toxic ratio ([1]; 72 h) | LC50 [1, 3] [µg/mL] | Toxic ratio ([2]; 72 h) | LC50 ([1]; Spodoptera littoralis, foliar, 2nd larvae of S. littoralis, after 72 h of treatment, treated castor leaves, read-out: LC50) [µg/mL] | LC50 ([1]; foliar, against Spodoptera littoralis under laboratory conditions, instar not stated, read-out: LC50) [µg/mL] | activity against Spodoptera littoralis ([1]; verbal summary of Table 1, compared with fenoxycarb) | LC50 [2, 3] [µg/mL]
1 | OC(COc1ccc2ccccc2c1)CN1CCN(CC(O)COc2ccc3ccccc3c2)CC1 (centres unmarked) [3,3′-(piperazine-1,4-diyl)bis(1-(naphthalen-2-yloxy)propan-2-ol)] | about 42.05 ppm | about 86.98 ppm |  |  |  |  |  |  | 
2 | CCOC(=O)NCCOc1ccc(Oc2ccccc2)cc1 [Fenoxycarb, reference compound] |  |  | 100 | 2.73 (≈ 9.06 µM) | 100 |  |  |  | 
3 | OC(COc1ccc2ccccc2c1)CN1CCN(CC(O)COc2ccc3ccccc3c2)CC1 (centres unmarked) [Compound 9, 3,3′-(piperazine-1,4-diyl)bis(1-(naphthalen-2-yloxy)propan-2-ol)] |  |  | 6.51 |  | 49.7 | 42 (≈ 86.4 µM) | 42 (≈ 86.4 µM) | active | 87 (≈ 179 µM)
